Laboratory results: article PMC10700596 (Nature Communications, 2023)
Several values for one entry are separate records, joined by “and”; a condition that tells them apart may be missing. Identical values can stand only once.

What was measured:
Format in all cases: binding
[1] = molecular target: TIE2 (Homo sapiens, UniProt Q02763); experiment: biochemical; conditions: 10000 nM; read-out: Percent Control
[2] = molecular target: AXL (Homo sapiens, UniProt P30530); experiment: biochemical; conditions: 10000 nM; read-out: Percent Control
[3] = molecular target: T1, JAK3(JH1domain-catalytic) (Homo sapiens, UniProt P52333); experiment: KINOMEscan
T1 construct: JAK3(JH1domain-catalytic); purchased Eurofins DiscoverX KINOMEscan (scanEDGE, 97 kinases)

[4] = molecular target: EPHA2 (Homo sapiens, UniProt P29317); experiment: biochemical; conditions: 10000 nM; read-out: Percent Control
[5] = molecular target: CDK2 (Homo sapiens, UniProt P24941); experiment: biochemical; conditions: 10000 nM; read-out: Percent Control
Text: (§1) . […] This panel includes several adverse drug reaction receptors such as the serotonin receptor 5HT2b, M1 and M2 muscarinic receptors and adrenergic receptors. […]. page 7:
(§2) Supplementary Figure 7: Non-GPCR off-target screening for 74. a)-e) Dose-response curves of 74 at […]
(§3) proliferator-activated receptor gamma (PPARγ, Eurofins item G124). Data in a)-e) and g)-i) represent two technical replicates. Source data are provided as a Source Data file.
(§4) (1 picture or pasted object on this page, not shown here)

[6] = molecular target: ADCK3 (Homo sapiens, UniProt Q8NI60); experiment: biochemical; conditions: 10000 nM; read-out: Percent Control
Text: as §1, §2, §3, §4

[7] = molecular target: YANK3 (Homo sapiens, UniProt Q86UX6); experiment: biochemical; conditions: 10000 nM; read-out: Percent Control
Text: as §1, §2, §3, §4

[8] = molecular target: CHEK1 (Homo sapiens, UniProt O14757); experiment: biochemical; conditions: 10000 nM; read-out: Percent Control
Text: as §1, §2, §3, §4

[9] = molecular target: GSK3B (Homo sapiens, UniProt P49841); experiment: biochemical; conditions: 10000 nM; read-out: Percent Control
Text: as §1, §2, §3, §4

[10] = molecular target: CDK11 (Homo sapiens, UniProt Q9BWU1); experiment: biochemical; conditions: 10000 nM; read-out: Percent Control
Text: as §1, §2, §3, §4

[11] = molecular target: ROCK2 (Homo sapiens, UniProt O75116); experiment: biochemical; conditions: 10000 nM; read-out: Percent Control
Text: as §1, §2, §3, §4

[12] = molecular target: FAK (Homo sapiens, UniProt Q05397); experiment: biochemical; conditions: 10000 nM; read-out: Percent Control
Text: as §1, §2, §3, §4

[13] = molecular target: ACVR1B (Homo sapiens, UniProt P36896); experiment: biochemical; conditions: 10000 nM; read-out: Percent Control
Text: as §1, §2, §3, §4

[14] = molecular target: JNK1 (Homo sapiens, UniProt P45983); experiment: biochemical; conditions: 10000 nM; read-out: Percent Control
Text: as §1, §2, §3, §4

[15] = molecular target: PRKCE (Homo sapiens, UniProt Q02156); experiment: biochemical; conditions: 10000 nM; read-out: Percent Control
Text: as §1, §2, §3, §4

[16] = molecular target: FGFR2 (Homo sapiens, UniProt P21802); experiment: biochemical; conditions: 10000 nM; read-out: Percent Control
Text: as §1, §2, §3, §4

[17] = molecular target: MET (Homo sapiens, UniProt P08581); experiment: biochemical; conditions: 10000 nM; read-out: Percent Control
Text: as §1, §2, §3, §4

[18] = molecular target: PIK3CG (Homo sapiens, UniProt P48736); experiment: biochemical; conditions: 10000 nM; read-out: Percent Control
Text: as §1, §2, §3, §4

[19] = molecular target: DCAMKL1 (Homo sapiens, UniProt O15075); experiment: biochemical; conditions: 10000 nM; read-out: Percent Control
Text: as §1, §2, §3, §4

[20] = molecular target: p38-alpha (Homo sapiens, UniProt Q16539); experiment: biochemical; conditions: 10000 nM; read-out: Percent Control
Text: as §1, §2, §3, §4

[21] = molecular target: INSR (Homo sapiens, UniProt P06213); experiment: biochemical; conditions: 10000 nM; read-out: Percent Control
Text: as §1, §2, §3, §4

[22] = molecular target: EGFR (Homo sapiens, UniProt P00533); experiment: biochemical; conditions: 10000 nM; read-out: Percent Control
Text: as §1, §2, §3, §4

[23] = molecular target: PIK3CA (Homo sapiens, UniProt P42336); experiment: biochemical; conditions: 10000 nM; read-out: Percent Control
Text: as §1, §2, §3, §4

[24] = molecular target: AKT1 (Homo sapiens, UniProt P31749); experiment: biochemical; conditions: 10000 nM; read-out: Percent Control
Text: as §1, §2, §3, §4

[25] = molecular target: DYRK1B (Homo sapiens, UniProt Q9Y463); experiment: biochemical; conditions: 10000 nM; read-out: Percent Control
Text: as §1, §2, §3, §4

[26] = molecular target: ERK1 (Homo sapiens, UniProt P27361); experiment: biochemical; conditions: 10000 nM; read-out: Percent Control
Text: as §1, §2, §3, §4

[27] = molecular target: EGFR(L858R) (Homo sapiens, UniProt P00533, L858R); experiment: biochemical; conditions: 10000 nM; read-out: Percent Control
Text: as §1, §2, §3, §4

[28] = molecular target: AKT2 (Homo sapiens, UniProt P31751); experiment: biochemical; conditions: 10000 nM; read-out: Percent Control
Text: as §1, §2, §3, §4

[29] = test system: 97 human kinases; conditions: 10 µM
Text: as §1, §2, §3, §4
Description of Additional Supplementary Files
File Name: Supplementary Data 1
Description: List of all compounds described in this work.
For each compound, the compound number, the virtual library code (ZINC / Design ID), the Enamine catalog code (Enamine catalog ID), 2D information (SMILES) and a brief description whether the compound was derived from virtual screening or optimization of initial hits (Set) are provided. For virtual screening compounds, the displacement of radiolabeled 3HPGE2 at 10 µM in the initial binding assay at […]
For hit compounds, logIC50, IC50 and Ki in the EP4R PRESTO-Tango or EP4R Arrestin-BRET assays are shown. For lead compounds, the Kb in the EP4R cAMP Assay and Ki from the EP4R radioligand displacement assay are listed.
File Name: Supplementary Data 2
Description: Off-target screening of compound 74 against a panel of 97 human kinases (KINOMEscan, […]

T1 sequence (P52333 782-1124 limits assumed): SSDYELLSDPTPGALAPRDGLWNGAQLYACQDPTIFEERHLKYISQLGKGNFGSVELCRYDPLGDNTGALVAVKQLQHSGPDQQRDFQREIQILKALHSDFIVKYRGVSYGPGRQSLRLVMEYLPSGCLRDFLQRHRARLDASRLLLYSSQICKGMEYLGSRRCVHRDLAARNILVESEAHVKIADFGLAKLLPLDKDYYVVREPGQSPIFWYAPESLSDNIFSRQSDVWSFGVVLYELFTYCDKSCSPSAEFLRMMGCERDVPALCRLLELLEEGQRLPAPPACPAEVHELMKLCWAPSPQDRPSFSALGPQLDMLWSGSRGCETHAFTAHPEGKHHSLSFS
CHEK1, sequence (O14757 whole entry): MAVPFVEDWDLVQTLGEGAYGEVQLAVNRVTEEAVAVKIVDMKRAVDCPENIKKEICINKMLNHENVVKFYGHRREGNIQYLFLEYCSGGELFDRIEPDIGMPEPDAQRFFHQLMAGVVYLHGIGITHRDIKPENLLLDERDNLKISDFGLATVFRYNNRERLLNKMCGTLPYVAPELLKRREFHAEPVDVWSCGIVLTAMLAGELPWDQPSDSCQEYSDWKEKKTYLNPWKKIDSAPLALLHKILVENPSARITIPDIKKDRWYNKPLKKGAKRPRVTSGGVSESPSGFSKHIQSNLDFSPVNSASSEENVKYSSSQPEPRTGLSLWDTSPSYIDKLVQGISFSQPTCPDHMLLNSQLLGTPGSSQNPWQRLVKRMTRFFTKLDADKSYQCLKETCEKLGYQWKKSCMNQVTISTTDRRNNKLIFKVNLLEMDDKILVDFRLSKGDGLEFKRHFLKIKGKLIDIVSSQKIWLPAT
ACVR1B, sequence (P36896 24-505): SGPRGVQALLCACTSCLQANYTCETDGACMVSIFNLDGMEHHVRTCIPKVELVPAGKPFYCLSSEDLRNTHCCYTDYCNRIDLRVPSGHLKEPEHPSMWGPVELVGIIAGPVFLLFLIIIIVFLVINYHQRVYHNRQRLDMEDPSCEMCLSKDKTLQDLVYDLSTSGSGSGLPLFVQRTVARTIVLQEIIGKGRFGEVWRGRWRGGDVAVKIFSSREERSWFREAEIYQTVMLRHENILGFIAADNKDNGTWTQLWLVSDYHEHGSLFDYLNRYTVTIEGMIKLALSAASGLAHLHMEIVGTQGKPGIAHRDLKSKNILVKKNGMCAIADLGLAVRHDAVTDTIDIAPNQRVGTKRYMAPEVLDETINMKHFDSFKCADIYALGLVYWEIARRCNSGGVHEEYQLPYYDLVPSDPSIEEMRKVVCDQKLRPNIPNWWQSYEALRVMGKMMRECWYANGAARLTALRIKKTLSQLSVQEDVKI
FAK, sequence (Q05397 whole entry): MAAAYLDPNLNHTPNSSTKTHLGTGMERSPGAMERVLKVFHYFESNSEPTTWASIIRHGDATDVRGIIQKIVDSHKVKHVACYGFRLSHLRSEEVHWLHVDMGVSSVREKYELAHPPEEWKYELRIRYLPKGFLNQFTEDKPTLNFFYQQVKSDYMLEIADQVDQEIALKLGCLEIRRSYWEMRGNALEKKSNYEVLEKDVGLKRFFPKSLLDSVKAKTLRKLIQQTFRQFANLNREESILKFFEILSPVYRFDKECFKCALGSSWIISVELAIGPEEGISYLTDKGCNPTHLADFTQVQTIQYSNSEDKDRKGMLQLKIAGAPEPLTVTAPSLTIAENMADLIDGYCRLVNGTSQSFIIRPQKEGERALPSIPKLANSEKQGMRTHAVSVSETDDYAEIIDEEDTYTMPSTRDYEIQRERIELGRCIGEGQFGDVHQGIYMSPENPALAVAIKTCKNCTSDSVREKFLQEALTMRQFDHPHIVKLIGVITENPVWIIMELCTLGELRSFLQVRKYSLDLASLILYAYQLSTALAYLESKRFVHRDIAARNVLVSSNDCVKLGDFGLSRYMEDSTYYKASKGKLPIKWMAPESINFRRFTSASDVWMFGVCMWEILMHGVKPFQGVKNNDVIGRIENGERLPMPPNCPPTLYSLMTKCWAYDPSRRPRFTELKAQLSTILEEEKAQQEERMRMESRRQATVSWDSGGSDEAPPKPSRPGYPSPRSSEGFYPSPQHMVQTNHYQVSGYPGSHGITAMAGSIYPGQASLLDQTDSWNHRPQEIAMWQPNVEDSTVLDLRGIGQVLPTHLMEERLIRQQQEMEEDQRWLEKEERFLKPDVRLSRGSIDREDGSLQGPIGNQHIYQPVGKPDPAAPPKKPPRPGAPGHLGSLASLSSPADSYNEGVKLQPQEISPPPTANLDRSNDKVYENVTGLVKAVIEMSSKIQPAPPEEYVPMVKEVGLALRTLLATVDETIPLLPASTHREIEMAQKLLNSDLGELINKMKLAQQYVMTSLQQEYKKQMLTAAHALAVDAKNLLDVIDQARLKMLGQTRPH
p38-alpha, sequence (Q16539 whole entry): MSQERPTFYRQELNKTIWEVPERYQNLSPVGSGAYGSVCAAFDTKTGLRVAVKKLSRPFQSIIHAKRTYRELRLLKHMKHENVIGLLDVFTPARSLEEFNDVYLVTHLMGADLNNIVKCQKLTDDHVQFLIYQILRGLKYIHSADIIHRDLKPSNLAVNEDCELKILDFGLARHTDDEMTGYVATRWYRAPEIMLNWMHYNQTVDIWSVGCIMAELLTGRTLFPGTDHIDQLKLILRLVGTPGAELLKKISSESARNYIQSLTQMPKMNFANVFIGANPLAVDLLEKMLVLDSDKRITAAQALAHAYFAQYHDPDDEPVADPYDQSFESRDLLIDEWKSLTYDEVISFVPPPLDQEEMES
FGFR2, sequence (P21802 22-821): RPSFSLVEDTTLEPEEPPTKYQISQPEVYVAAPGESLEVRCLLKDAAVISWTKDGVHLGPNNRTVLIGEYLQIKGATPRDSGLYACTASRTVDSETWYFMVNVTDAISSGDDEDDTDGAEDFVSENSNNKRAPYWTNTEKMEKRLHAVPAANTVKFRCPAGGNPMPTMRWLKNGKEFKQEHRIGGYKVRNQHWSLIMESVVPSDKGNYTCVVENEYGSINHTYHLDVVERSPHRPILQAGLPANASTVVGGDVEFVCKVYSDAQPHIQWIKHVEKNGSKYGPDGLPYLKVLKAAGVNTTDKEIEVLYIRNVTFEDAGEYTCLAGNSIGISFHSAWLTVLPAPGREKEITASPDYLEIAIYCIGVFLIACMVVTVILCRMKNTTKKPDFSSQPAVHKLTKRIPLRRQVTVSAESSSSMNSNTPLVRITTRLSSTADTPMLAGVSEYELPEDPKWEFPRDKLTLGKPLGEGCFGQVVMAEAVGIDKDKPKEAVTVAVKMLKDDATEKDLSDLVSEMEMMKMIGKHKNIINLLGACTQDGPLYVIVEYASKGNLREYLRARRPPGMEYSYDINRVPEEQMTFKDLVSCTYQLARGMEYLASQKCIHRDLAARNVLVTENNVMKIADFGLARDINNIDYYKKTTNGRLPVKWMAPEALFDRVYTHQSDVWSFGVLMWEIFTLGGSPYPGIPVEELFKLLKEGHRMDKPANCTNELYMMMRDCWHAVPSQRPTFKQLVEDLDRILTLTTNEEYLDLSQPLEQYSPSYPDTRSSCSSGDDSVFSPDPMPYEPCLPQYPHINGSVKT
CDK11, sequence (Q9BWU1 whole entry): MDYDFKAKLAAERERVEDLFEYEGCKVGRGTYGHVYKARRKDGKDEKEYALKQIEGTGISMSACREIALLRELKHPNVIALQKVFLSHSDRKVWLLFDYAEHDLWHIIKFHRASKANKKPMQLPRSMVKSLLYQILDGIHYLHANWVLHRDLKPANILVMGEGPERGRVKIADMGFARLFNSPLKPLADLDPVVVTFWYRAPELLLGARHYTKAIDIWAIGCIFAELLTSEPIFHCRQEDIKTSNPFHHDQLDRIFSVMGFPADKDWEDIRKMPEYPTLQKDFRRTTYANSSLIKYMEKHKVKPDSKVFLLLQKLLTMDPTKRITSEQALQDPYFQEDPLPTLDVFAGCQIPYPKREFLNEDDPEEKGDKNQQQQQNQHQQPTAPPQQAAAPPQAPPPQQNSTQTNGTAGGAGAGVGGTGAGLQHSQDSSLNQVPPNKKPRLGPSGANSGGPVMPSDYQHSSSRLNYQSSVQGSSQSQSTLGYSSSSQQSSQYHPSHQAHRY
GSK3B, sequence (P49841 whole entry): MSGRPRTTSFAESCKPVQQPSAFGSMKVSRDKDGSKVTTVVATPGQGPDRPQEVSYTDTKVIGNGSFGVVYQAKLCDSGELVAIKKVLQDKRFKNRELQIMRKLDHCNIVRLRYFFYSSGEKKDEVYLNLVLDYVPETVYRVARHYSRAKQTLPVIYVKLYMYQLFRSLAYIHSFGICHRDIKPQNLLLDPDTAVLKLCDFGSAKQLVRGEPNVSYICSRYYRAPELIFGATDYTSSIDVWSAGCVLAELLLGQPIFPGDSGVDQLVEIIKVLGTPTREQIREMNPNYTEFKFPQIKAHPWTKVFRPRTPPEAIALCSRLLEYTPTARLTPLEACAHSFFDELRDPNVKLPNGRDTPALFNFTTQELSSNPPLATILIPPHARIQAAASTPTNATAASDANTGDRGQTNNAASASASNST
JNK1, sequence (P45983 whole entry): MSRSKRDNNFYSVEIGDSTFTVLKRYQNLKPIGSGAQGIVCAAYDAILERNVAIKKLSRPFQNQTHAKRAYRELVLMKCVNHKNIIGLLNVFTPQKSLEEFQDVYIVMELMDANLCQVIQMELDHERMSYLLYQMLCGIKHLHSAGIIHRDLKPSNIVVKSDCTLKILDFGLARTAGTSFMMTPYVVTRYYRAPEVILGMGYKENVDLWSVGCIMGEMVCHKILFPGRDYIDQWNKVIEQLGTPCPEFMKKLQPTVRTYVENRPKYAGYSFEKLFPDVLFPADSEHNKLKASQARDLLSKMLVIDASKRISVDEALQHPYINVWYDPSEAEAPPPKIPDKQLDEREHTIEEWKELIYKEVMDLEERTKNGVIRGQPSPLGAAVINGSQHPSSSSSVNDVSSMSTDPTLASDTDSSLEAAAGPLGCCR

Question: Which results are given for `O=C(O)C1CCC2(CC1)CC(Nc1ncnc3[nH]c4c(F)cccc4c13)C2` (stereo not drawn) [Compound 74, OC(=O)C1CCC2(CC(C2)NC=3N=CN=C4NC=5C(F)=CC=CC5C34)CC1]?
Answer: remaining activity at 10 µM [1]: 81%; remaining activity at 10 µM [2]: 47%; remaining binding at 10 µM ([3]; 10000 nM, read-out: Percent Control): 0.25%; Signal (qPCR) ([3]; JAK3, [Compound] 0.0001 nM): 1.3e-6 and 8.87e-7; Signal (qPCR) ([3]; JAK3, [Compound] 0.001 nM): 1.24e-6 and 1.2e-6; Signal (qPCR) ([3]; JAK3, [Compound] 0.01 nM): 1.37e-6 and 1.42e-6; Signal (qPCR) ([3]; JAK3, [Compound] 0.169 nM): 1.07e-6 and 1.21e-6; Signal (qPCR) ([3]; JAK3, [Compound] 0.508 nM): 1.06e-6 and 1.26e-6; Signal (qPCR) ([3]; JAK3, [Compound] 1.52 nM): 1.19e-6 and 1.38e-6; Signal (qPCR) ([3]; JAK3, [Compound] 4.57 nM): 1.36e-6 and 1.47e-6; Signal (qPCR) ([3]; JAK3, [Compound] 13.7 nM): 1.11e-6 and 1.19e-6; Signal (qPCR) ([3]; JAK3, [Compound] 41.2 nM): 1.18e-6 and 1.3e-6; Signal (qPCR) ([3]; JAK3, [Compound] 123 nM): 1.07e-6 and 1.06e-6; Signal (qPCR) ([3]; JAK3, [Compound] 370 nM): 8.09e-7 and 7.97e-7; Signal (qPCR) ([3]; JAK3, [Compound] 3330 nM): 1.07e-7; Signal (qPCR) ([3]; JAK3, [Compound] 10000 nM): 2.42e-8 and 3.31e-8; remaining activity at 10 µM [4]: 83%; remaining activity at 10 µM [5]: 96%; remaining activity at 10 µM [6]: 85%; remaining activity at 10 µM [7]: 62%; remaining activity at 10 µM [8]: 100%; remaining activity at 10 µM [9]: 82%; remaining activity at 10 µM [10]: 46%; remaining activity at 10 µM [11]: 59%; remaining activity at 10 µM [12]: 97%; remaining activity at 10 µM [13]: 55%; remaining activity at 10 µM [14]: 35%; remaining activity at 10 µM [15]: 57%; remaining activity at 10 µM [16]: 71%; remaining activity at 10 µM [17]: 100%; remaining activity at 10 µM [18]: 3.5%; remaining activity at 10 µM [19]: 78%; remaining activity at 10 µM [20]: 87%; remaining activity at 10 µM [21]: 90%; remaining activity at 10 µM [22]: 96%; remaining activity at 10 µM [23]: 64%; remaining activity at 10 µM [24]: 100%; remaining activity at 10 µM [25]: 74%; remaining activity at 10 µM [26]: 100%; remaining activity at 10 µM [27]: 84%; remaining activity at 10 µM [28]: 74%; inhibition in kinase panel [29]: notable inhibition of five kinases
